SMILES strings stand for the structures.

Data set [1] deals with HIV strain III B. In words: Protective effect on MT-4 host cells against HIV infection (MTT). The class given is cell-based. The settings on record: stock ultramicroemulsions, 10^-3 to 10^-4, concentration not stated. The method, then:
MT4-cells (an immortalized T-cell line highly sensitive to HIV cytopathoge-nic effect, CPE) of a 24 h-old culture were suspended at a concentration of 2×10^5 /ml, divided into 1.2 ml aliquotes in polypropylene tubes, and pelleted by centrifugation. Pellets were either infected with 200 μl of a stock solution of HIV strain III B (Titre: 600 CCID50 /ml), or mock-infected with plain medium, for 90 min. at 37° C, upon which 1 ml of plain medium was added to each tube, restoring initial cell concentration and bringing HIV concentration to 100 CCID50 /ml. [CCID50 /ml=50% cell culture infective dose].
100 μl volumes of the MARIGENOL®-Concentrates to be tested, diluted to aqueous microemulsions 10^-3 and then further diluted from 10^-3 to […] in RPMI 1640 medium, or of plain medium, were added in triplicate to flat-bottom, 96-well microtitre plates. […]
Cultures were incubated at 37° C., in a humified atmosphere of 5% CO2 +95% air. Five days after infection, 100 μl of supernatant were removed from each well, and cell viability was assessed by reduction of a methyl-tetrazolium salt (MTT, Sigma, 25 μl/well of a 5 mg/ml solution) in a 2-h incubation test, followed by solubilization with 100 μl DMSO/well and photometric readout of the optical density at 550 nm. Residual cell viability was expressed as percent difference from HIV CPE-control cultures mean readout, considered as zero.

Data set [2] concerns Py6 cells (Virus transformed 3T3 mouse-fibroblasts). In words: Test of cell toxicity / cytotoxicity of MARIGENOL concentrates on Py6 cells (plaque assay, serial dilution). As to conditions: for in dilution active up to 1: (microemulsion ME 1:100): dilution of ME 1:100, given in Mio. Format: cell-based. The method, then: A biological assay system using microtiter plates and serial dilutions has been developed. Batches of 10^4 tumour cells per ml were set up in culture medium RPMI 1640 and inactivated with 10% of fetal calf serum (GIBCO); they are spread at a density low enough to enable them to grow during the assay, in non-confluent monolayers. Samples are added after 6 to 24 hours, with 100 μl per row, to which 100 μl of medium are added in the first well. Half of this mixture is withdrawn, transferred into the next well and again treated with 100 μl of medium, etc.
[…] They are then stained and fixed using 0.1% crystal violet (Fluka, Buchs) in a solution of 70% of methanol, 1% of formaldehyde and 29% of water. The samples are evaluated under the microscope, magnification 300×. The greatest cytotoxic dilution is determined. The samples can also be evaluated quantitatively by means of scanning and absorption measurement in a spectrophotometer.
N.B.: On the subject of the eternalized Py6-cells cf.: "Biochemistry", Coordinating Editor Geoffrey L. Zubay, Addison-Wesley Publishing Company, 1983, p.1079.

Data set [3] can be described thus: Micellar size by dynamic light scattering. As to conditions: aqueous emulsion 1:100 of 1%-concentrate; DLS. The class given is physicochemical. An excerpt:
[Measurement conducted with QLS=quasi-elastic, dynamic light scattering; tests performed at the Federal Institute for Technology, Zurich, Institute for Polymers (Prof. Dr. Pier Luigi LUISI and Prof. Dr. Peter SCHURTENBERGER)]. See: "Mode-selective dynamic light scattering; theory versus experimental realization", Thomas Gisler, et al., Applied Optics/Vol. 34, No. 18/Jun. 20, 1995, pp. 3546-3553.
Measurement conducted with aqueous emulsions 1:100 (CMC-marginal value for a homogenous spreading of the surfactants), prepared from the 1%-concentrates. Method: dynamic light scattering (DLS) in 3 angular positions each (60°, 90° and 120°), and with 10 single measurements taken each time. The instrument is a specially equipped "Fiberoptic Spectrometer" of the Institute for Polymers. Description of the method and the instrument, see: "Mode-selective dynamic light scattering: theory versus experimental realization". Thomas Gisler et al., Applied Optics/Vol. 34, No. 18/Jun. 20, 1995.

Data set [4] has as its system Herpes-Virus (Herpes Simplex, HSV). In words: Antiviral/virucidal efficacy against HSV, plaque reduction in VERO cells. Format: cell-based. The settings on record: compared to simple medium, 2880 min. The protocol: (§1) The antiviral/virucidal efficacy against HSV of an aqueous microemulsion prepared with appropriate MARIGENOL®-concentrates was assessed on a confluent monolayer culture of VERO cells (i.e. "African green monkey kidney cells"). The host cells were pretreated during 3 h at 4° C. with an inventive microemulsion or with culture medium alone and then infected with HSV at a constant dose of 10^4 plaque forming units (PFU). After virus absorption during 1 h, and subsequent addition of 2% methylcellulose in order to limit virus spreading, cells were cultured in MEM medium+2% foetal calf serum for 48 h, then fixed and stained with 1% crystal violet in methanol. The reduction of viral titre was expressed as percent reduction of plaques of lysis observed in pre-treated cells, compared to controls.
Infection was also detected by IFA at 24 h after inoculation, using a Mab specific for a glycoprotein common to HSV-1/HSV-2 (clone FQ 12, Argene Biosoft, BIOLINE, Torino).
The following test substances were assessed as concentrates in aqueous dilution (starting with a microemulsion 1:100): […]

Data set [5] relates to VERO cells. In words: Cell lysis in VERO cell layers. The class given is cell-based, African green monkey. As to conditions: dilution 1:1'000; plaque reduction table. The method, then: as §1
Data set [6] concerns HIV isolates from patients (strains 21/4 and 4/5). The data set can be described thus: Effect on HIV infectivity, residual HIV titre (direct antiviral efficacy). Format: cell-based. As to conditions: mean titre of 2 strains, 3 h, +4° C. The method, then:
Aliquote amounts of two HIV isolates from patients (strains 21/4 and 4/5) resuspended in complete RPMI medium at a titre of 300 CCID50 /ml were incubated during 3 hours, +4° C. with MARIGENOL®-concentrate, in the form of an aqueous microemulsion, at concentrations ranging from 10^-2 to 10^-5 in complete medium, as well as with ("empty") carrier concentrate and with medium alone as controls.
After pre-incubation, residual HIV titre was assessed by the CCID50 method (Cell-culture infecting dose 50%). Briefly, serial twofold dilutions were prepared from each of the six virus suspensions, and 200 μl of each dilution were incubated for 90 minutes with MT-4 cell pellets prepared as stated before (see 7.1). At the end of incubation, pellets were brought to initial cell concentration by adding appropriate amounts of complete RPMI medium to each tube, whose content was then distributed into 8 wells of a flat-bottom microtitre plate in 200 μl volumes, each vertical row coresponding to a dilution. After 5 days of incubation, cell viability was assessed by the MTT test as stated above, and the HIV titre was expressed as the reciprocal of that dilution which infects 4 out of 8 wells (50%) in a row. A well was considered infected when its O.D. readout at 550 nm was lower than the average readout of 8 control wells minus 2.8 times the standard error of the mean (lower 95% confidence limit).

Data set [7] deals with human CMV-strain AD169. In words: Virucidal efficacy on human cytomegalovirus (immunofluorescence). Format: cell-based. As to conditions: control 15'000. The method, then:
The assay was conducted with human, embryonic Lung Fibroblasts as host cells, which were then infected with the human CMV-strain AD169.
The virus strain was incubated during 4 h at +4° C. with varying concentrations of the test substance C16:0 -β-Sitosteryl ester, formulated as a 1%-concentrate and diluted to aqueous microemulsions 10^-3, 10^-4 and 10^-5. It was subsequently inoculated on monolayers of human embryonic lung fibroblasts (which are very susceptible to the CMV-virus). These host cells were grown in shell vials in minimal essential medium (MEM, GIBCO, Life Technologies), containing 10% fetal calf serum. A confluent culture was raised with 120,000 cells per shell-vial. The infection was effected by means of centrifugation during 45 minutes at 1'500 rpm at RT. Thereafter, the injection-suspension was eliminated and 1 ml medium MEM+2% FCS was added (same medium as before). The infected cell culture was maintained during 20 h at 37° C., in a 5%-CO2 -atmosphere. […]
Quantification of the virucidal effect was measured with an immunofluorescence assay. […]
This is followed by 3 washing operations with PBS and a second incubation with the fluorescence-marked antibody IgG goat anti-IgG mouse. […]
The number of IEA-positive cells was recorded. The nuclei which were positive against the CMV-specific antigen were counted by means of the fluorescence microscope, magnification 25×, in aqueous phase.

In the case of `CCCCCC(=O)O[C@H]1CC[C@@]2(C)C(=CC[C@H]3[C@@H]4CC[C@H]([C@H](C)CC[C@@H](CC)C(C)C)[C@@]4(C)CC[C@@H]32)C1` [β-Sitosteryl-Caproylate], the “protective action on MT-4 cells against HIV” value in data set [1] was “very remarkable results”; in data set [1] (listed as β-Sitosterypl-Caproylate), “Similar, though less remarkable results”.
Regarding `C=CCCCCCCCCC(=O)Oc1cc(OC(=O)CCCCCCCCC=C)c2c(=O)c(OC(=O)CCCCCCCCC=C)c(-c3ccc(OC(=O)CCCCCCCCC=C)c(OC(=O)CCCCCCCCC=C)c3)oc2c1` [QUERCETIN-PENTA-UNDECENOATE, Quercetin-penta-10-undecenoate], the “in dilution active up to 1: (calculated on active substance content, A.S.)” value in data set [2] (24 h exposure) is given as 25.6 Mio; in data set [2] (48 h exposure), 100 Mio; in data set [2] (72 h exposure), 200 Mio. Further, the “in dilution active up to 1: (microemulsion ME 1:100)” value in data set [2] (48 h exposure) is 1 Mio; in data set [2] (72 h exposure), 2 Mio. Also, in data set [3], the “MICELLAR SIZE in nm” value is recorded as 2-3 nm. Further, the “Percent reduction of plaques in VERO cell monolayers” value (“Percent reduction of plaques” below) is listed as 48% in data set [4] (dilution 1:10'000) and 0% in data set [4] (dilution 1:100'000). Also, the Cell-Lysis result in data set [5] was “Cell-Lysis”.
On to `CCCCCCCC/C=C\CCCCCCCC(=O)Oc1ccc2c(c1)CC[C@@H]1[C@@H]2CC[C@]2(C)[C@@H](OC(=O)CCCCCCC/C=C\CCCCCCCC)CC[C@@H]12` [β-ESTRADIOL-DI-OLEATE], for which, in data set [3], the “MICELLAR SIZE in nm” value was 2-3 nm.
Consider `CCCCCCCCCCCCCCCCCCCC(=O)O[C@H]1CC[C@@]2(C)C(=CC[C@H]3[C@@H]4CC[C@H]([C@H](C)CC[C@@H](CC)C(C)C)[C@@]4(C)CC[C@@H]32)C1` [β-Sitosteryl-Arachidate, 3β-Stigmast-5-en-3-arachidate], for which the “Percent reduction of plaques” value was 76% in data set [4] (dilution 1:10'000) and 5% in data set [4] (dilution 1:100'000). For the same molecule, the Cell-Lysis entry in data set [5] is listed as “Cell-Lysis”.
Consider `CCCCCCCCCCCCCCCC(=O)O[C@H]1CC[C@@]2(C)C(=CC[C@H]3[C@@H]4CC[C@H]([C@H](C)CC[C@@H](CC)C(C)C)[C@@]4(C)CC[C@@H]32)C1` [β-SITOSTERYL-PALMITATE, 3β-Stigmast-5-en-3-palmitate], for which the “RESIDUAL HIV TITRE (CCID50)” value in data set [6] (concentrate 1'000 ppm, active substance 10 ppm) worked out at 2 CCID50; in data set [6] (concentrate 10 ppm, active substance 0.1 ppm) it was 120 CCID50; in data set [6] (concentrate 50 ppm, active substance 0.5 ppm), 76 CCID50; in data set [6] (concentrate 100 ppm, active substance 1 ppm), 50 CCID50. The figures for the “Number of the positive nuclei (anti P-72 antigens)” value in data set [7] (microemulsion 1:1'000 = 1'000 ppm concentrate) and in data set [7] (microemulsion 1:10'000 = 100 ppm concentrate) were 0 and 2, respectively. Besides, the figures for the “Percent reduction of plaques” value in data set [4] (dilution 1:10'000) and in data set [4] (dilution 1:100'000) were 24% and 0%, respectively. The Cell-Lysis result in data set [5] is given as “Cell-Lysis”.

Source of the values: patent publication US6057359A, “Spontaneously dispersible concentrates comprising esters of baccatin-III compounds having antitumor and antiviral activity” (Marigen S.A., priority 1997, dated 2000).
